We go through nine compounds from publication PMC9732672, “Pyrazolyl-s-triazine with indole motif as a novel of epidermal growth factor receptor/cyclin-dependent kinase 2 dual inhibitors” (Frontiers in Chemistry, 2022).

The test system of data set [1] is A549 (non-small cell lung cancer) cells. Kind of data set: MTT cytotoxicity assay, A549. It counts as cell-based, human. Particulars: Homo sapiens, A549, average ±SD of four independent experiments, read-out: IC50 ± STDEV, A549. The method, then:
(§1) The parental MCF7 (breast cancer cell line), A549 (non-small cell lung cancer cell line), and human dermal fibroblast (HDF) (human dermal cell line) cells were obtained from the American Type Culture Collection (ATCC, Manassas, VA, United States). MCF7 and A549 cells were cultured in RPMI 1640 medium (EuroClone, Italy) supplemented with 10% (v/v) heat-inactivated fetal bovine serum (FBS) (EuroClone, Italy), 1% penicillin-streptomycin (EuroClone, Italy), and 2 mM L-glutamine.
(§2) The cytotoxic activity of the tested compounds were tested using MTT assay. […] Then, the cell viability was recored and IC50 values were calcualted. ([Mosmann, 1983]; [Nafie et al., 2020c]).

Data set [2] deals with MCF-7 (breast cancer) cells. The data set can be described thus: MTT cytotoxicity assay, MCF-7. Particulars: Homo sapiens, MCF7, average ±SD of four independent experiments, read-out: IC50 ± STDEV, MCF-7. It is filed as cell-based, human. As to the method: as §1, §2
(In general: Tetrazolium assays rely on reduction of a dye to a coloured formazan, in cell work by metabolically active cells.)

In data set [3] the test system is HDFs (non-cancerous human dermal fibroblasts). The data set can be described thus: MTT cytotoxicity assay, HDFs. It is filed as cell-based. The following applies: Homo sapiens, Fibroblast, non-cancerous cells, average ±SD of four independent experiments, read-out: IC50 ± STDEV, HDFs. As to the method:
as §1, §2

The next data set deals with T1, EGFR (Homo sapiens, UniProt P00533).
T1 construct: purchased Promega V9261
Kind of data set: EGFR-TK kinase assay (ADP-Glo). It counts as biochemical. Particulars: for IC50: Mean ± SD of three independent replicates, read-out: EGFR inhibition IC50. As to the method:
EGFR-TK assay kit (ADP-Glo™ kinase assay, Cat No. V9261, Promega, United States) kinase assay was performed to evaluate the capacity of 3h, 3i, and 3j to inhibit EGFR.

The target of the next data set is CDK-2 (Homo sapiens, UniProt P24941). The data set can be described thus: CDK-2 enzyme inhibition. It is filed as biochemical. The following applies: for IC50: Mean ± SD of three independent replicates.
The next data set relates to A549 cells. Kind of data set: Flow cytometry, Annexin V/PI staining. It is filed as cell-based, human. Particulars: A549, IC50 value, 48 h; for cells undergoing late apoptosis: control 0.16%; for cells undergoing early apoptosis: control 0.42%; for total apoptosis / total apoptotic cell death, fold vs control: control 0.61%; for necrosis-mediated cell death / necrosis-mediated cell death, fold increase: control 0.97%. As to the method:
A549 cells were seeded into 6-well culture plates (3-5× 10^5 cells/well) and incubated overnight. […] Next, media supernatants and cells were collected and rinsed with ice-cold PBS. The cells were then suspended in the flow cytometry solutions and cells were stained with Annexin V/PI, and data was acquired using a Cytoflex FACS machine. Data were analyzed using cytExpert software. ([Hisham et al., 2019]; [Khodair et al., 2019]; [Nafie et al., 2020b]).
Background: Flow cytometry measures light scatter and fluorescence of single cells or particles in a stream.

The test system of data set [4] is apoptosis-related genes in A549 cells. The data set can be described thus: Gene expression analysis by RT-PCR. It counts as cell-based, human. Particulars: A549 treated at IC50; normalized to β-actin; 2^-ΔΔCT.
A further data set addresses 5-HT7R. Also noted: method as in Kułaga et al., 2020. Particulars: ref Kułaga et al., 2020; read-out: Ki, 5-HT7 receptors; cited from earlier work.
The subject of a further data set is CDK1. Also noted: method as in Kumar et al., 2019. The following applies: Figure 1; ref Kumar et al., 2019; read-out: CDK-inhibitor IC50, CDK1; cited from earlier work.
The test system of another data set is CDK2-A. Also noted: method as in Kumar et al., 2019. Particulars: Figure 1; ref Kumar et al., 2019; read-out: CDK-inhibitor IC50, CDK2-A; cited from earlier work.
The test system of the next data set is CDK4. More on the design: method as in Kumar et al., 2019. Particulars: Figure 1; ref Kumar et al., 2019; read-out: CDK-inhibitor IC50, CDK4; cited from earlier work.
The next data set has as its system CDK6. More on the design: method as in Kumar et al., 2019. Particulars: Figure 1; ref Kumar et al., 2019; read-out: CDK-inhibitor IC50, CDK6; cited from earlier work.

T1 sequence (P00533 25-1210): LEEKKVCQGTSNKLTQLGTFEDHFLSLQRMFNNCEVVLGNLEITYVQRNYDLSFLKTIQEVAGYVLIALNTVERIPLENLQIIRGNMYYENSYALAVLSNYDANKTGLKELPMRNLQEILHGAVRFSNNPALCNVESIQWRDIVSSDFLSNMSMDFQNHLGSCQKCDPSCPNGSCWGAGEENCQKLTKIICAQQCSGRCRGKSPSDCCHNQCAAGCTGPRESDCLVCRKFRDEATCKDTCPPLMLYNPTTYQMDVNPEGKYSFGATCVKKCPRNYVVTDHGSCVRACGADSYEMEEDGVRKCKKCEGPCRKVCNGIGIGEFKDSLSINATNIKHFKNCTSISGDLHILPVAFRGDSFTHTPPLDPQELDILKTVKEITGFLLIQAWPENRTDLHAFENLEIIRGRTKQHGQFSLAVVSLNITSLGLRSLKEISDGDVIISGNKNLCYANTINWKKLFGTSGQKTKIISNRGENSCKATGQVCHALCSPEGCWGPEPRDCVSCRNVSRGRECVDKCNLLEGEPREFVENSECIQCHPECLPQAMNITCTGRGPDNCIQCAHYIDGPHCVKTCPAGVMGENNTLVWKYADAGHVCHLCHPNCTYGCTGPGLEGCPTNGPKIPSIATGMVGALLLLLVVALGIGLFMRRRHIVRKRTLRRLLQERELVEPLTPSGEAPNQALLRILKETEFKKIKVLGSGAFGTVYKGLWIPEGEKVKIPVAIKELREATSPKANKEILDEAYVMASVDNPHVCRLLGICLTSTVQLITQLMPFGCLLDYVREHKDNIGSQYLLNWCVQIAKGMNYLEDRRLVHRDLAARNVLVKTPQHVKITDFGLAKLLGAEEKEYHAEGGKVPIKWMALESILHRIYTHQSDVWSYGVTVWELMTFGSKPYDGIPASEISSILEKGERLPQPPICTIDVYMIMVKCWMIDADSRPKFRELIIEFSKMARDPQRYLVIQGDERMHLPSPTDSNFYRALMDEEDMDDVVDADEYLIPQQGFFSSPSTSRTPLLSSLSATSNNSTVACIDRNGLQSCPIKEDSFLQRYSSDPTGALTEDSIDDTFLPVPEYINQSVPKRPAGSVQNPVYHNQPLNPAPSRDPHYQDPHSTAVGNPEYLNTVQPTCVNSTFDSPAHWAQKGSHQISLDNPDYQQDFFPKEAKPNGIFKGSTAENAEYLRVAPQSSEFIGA

For orientation: IC50 means the concentration needed to halve the response being measured. In the case of `Nc1cc(-c2c[nH]c3ccccc23)nn1-c1nc(Nc2ccccc2)nc(N2CCOCC2)n1` [Compound 3h, 4-(5-Amino-3-(1H-indol-3-yl)-1H-pyrazol-1-yl)-6-morpholino-N-phenyl-1,3,5-triazin-2-amine], in data set [1], the IC50 amounted to 2650 ± 220 nM. For the same compound, in [2], the IC50 was determined as 2660 ± 260 nM. For the same compound, in data set [3], the IC50 amounted to 14000 ± 2670 nM. The IC50 on EGFR worked out at 64.2 ± 3.12 nM. For the same compound, at CDK-2, the IC50 came out at 112 ± 3.01 nM. In the data set on A549 cells, the “cells undergoing late apoptosis” value is 12%; the “cells undergoing early apoptosis” value is 19.4%; the total apoptosis is given as 31.4%; the “total apoptotic cell death, fold vs control” value is 51.4 fold. In the data set with A549 cells, the necrosis-mediated cell death stood at 4.98% and the “necrosis-mediated cell death, fold increase” value is 5.1 fold.
For orientation: inhibition means how much of the control response was suppressed. Consider `Nc1cc(-c2c[nH]c3ccccc23)nn1-c1nc(Nc2ccc(Cl)cc2)nc(N2CCOCC2)n1` [Compound 3i, 4-(5-Amino-3-(1H-indol-3-yl)-1H-pyrazol-1-yl)-N-(4-chlorophenyl)-6-morpholino-1,3,5-triazin-2-amine], for which the IC50 in data set [1] was found to be 2400 ± 640 nM. In addition, the IC50 in data set [2] is 3280 ± 160 nM. Also, the IC50 in data set [3] was found to be 3780 ± 550 nM. At EGFR, the IC50 was 34.1 ± 1.58 nM. Also, on EGFR (at 10 µM), testing at 10 µM gave an inhibition of 93.6%. The IC50 on CDK-2 turned out to be 108 ± 3.12 nM. At CDK-2 (at 10 µM), this compound displayed an inhibition at 10 µM of 91.4%. Further, in the data set on A549 cells, the “cells undergoing late apoptosis” value is 19.5%; the “cells undergoing early apoptosis” value amounted to 24.2%; the total apoptosis is listed as 43.7%; the “total apoptotic cell death, fold vs control” value was 71.6 fold. Moreover, in the data set with A549 cells, the necrosis-mediated cell death is 4.08% and the “necrosis-mediated cell death, fold increase” value was 4.2 fold. In [4], the “Bax gene expression, fold of change” value turned out to be 3.56 fold; the “Bcl-2 gene expression, fold change” value is listed as 0.23 fold; the “P53 gene expression, fold of change” value is recorded as 4.55 fold; the “caspase 3 gene expression, fold of change” value was found to be 6.96 fold. Besides, in data set [4], the “caspase 8 gene expression, fold of change” value was found to be 1.49 fold and the “caspase 9 gene expression, fold of change” value stood at 7 fold.
Take `Nc1cc(-c2c[nH]c3ccccc23)nn1-c1nc(Nc2ccc(Br)cc2)nc(N2CCOCC2)n1` [Compound 3j, 4-(5-Amino-3-(1H-indol-3-yl)-1H-pyrazol-1-yl)-N-(4-bromophenyl)-6-morpholino-1,3,5-triazin-2-amine]: the IC50 in data set [1] is 2320 ± 210 nM. Moreover, the IC50 in data set [2] turned out to be 3300 ± 320 nM. The IC50 in data set [3] turned out to be 3960 ± 730 nM. In addition, at EGFR, the IC50 was 68.4 ± 2.98 nM. The half-maximal inhibitory concentration (IC50) against CDK-2 was determined as 136 ± 3.14 nM. In the data set on A549 cells, the “cells undergoing late apoptosis” value came out at 8.5%; the “cells undergoing early apoptosis” value is on record as 22.6%; the total apoptosis turned out to be 31.1%; the “total apoptotic cell death, fold vs control” value is reported as 50.9 fold. For the same compound, in the data set with A549 cells, the necrosis-mediated cell death stood at 5.42% and the “necrosis-mediated cell death, fold increase” value was 5.58 fold.
What is called melting point is the temperature of the solid-liquid transition. Consider `COc1ccc(Nc2nc(N3CCCCC3)nc(-n3ncc(C#N)c3-c3c[nH]c4ccccc34)n2)cc1` [Compound 5g, 5-(1H-Indol-3-yl)-1-(4-((4-methoxyphenyl)amino)-6-(piperidin-1-yl)-1,3,5-triazin-2-yl)-1H-pyrazole-4-carbonitrile], for which the melting point was 273 to 275 °C. In addition, the IC50 in data set [1] is above 500000 nM. Further, in [2], the IC50 is above 500000 nM. In data set [3], the IC50 is above 500000 nM.
With `COc1ccc(Nc2nc(N3CCOCC3)nc(-n3ncc(C#N)c3-c3c[nH]c4ccccc34)n2)cc1` [Compound 5k, 5-(1H-Indol-3-yl)-1-(4-((4-methoxyphenyl)amino)-6-morpholino-1,3,5-triazin-2-yl)-1H-pyrazole-4-carbonitrile], the melting point was 293 to 295 °C. The 50% inhibitory concentration (IC50) in data set [1] is above 500000 nM. Besides, in data set [2], the IC50 was above 500000 nM. Moreover, the IC50 in data set [3] was above 500000 nM.
As a reminder, the Ki is the equilibrium dissociation constant of an inhibitor or competing ligand from its target. For the compound `Nc1nc(NCCOc2ccccc2)nc(NCCc2c[nH]c3ccccc23)n1` [XIV], the Ki on 5-HT7R was below 60 nM.
For `OCCCNc1cncc(-c2ncnc(Nc3cccc(Cl)c3)n2)c1` [XVII], the IC50 in the data set on CDK1 was 60 nM.
With `OCCCNc1cc(-c2ncnc(Nc3cccc(Cl)c3)n2)ccn1` [XVI], the half-maximal inhibitory concentration (IC50) in the data set with CDK1 was 21 nM; with CDK2-A it was 7 nM; in the data set with CDK4, 308 nM; with CDK6 it was 356 nM.
With `COc1nc(NCCc2c[nH]c3ccccc23)nc(Nc2ccc3[nH]ncc3c2)n1` [XV], the Ki at 5-HT7R is below 60 nM.
